Measured values from ChEMBL document CHEMBL4828715, “Discovery, Structure-Activity Relationships, and In Vivo Evaluation of Novel Aryl Amides as Brain Penetrant Adaptor Protein 2-Associated Kinase 1 (AAK1) Inhibitors for the Treatment of Neuropathic Pain” (J Med Chem, 2021).
Values after ≈ are worked out from the molar mass of the structure shown. Active and inactive are the calls of the source. The rule behind the calls is not given here.

Assays:
[1] = Permeability of the compound across basolateral to apical membrane in human Caco-2 cells incubated for 2 hrs by LC-MS/MS analysis; assay type: ADME, cell-based; conditions: caco-2, 2 h
[2] = Permeability of the compound across apical to basolateral membrane in human Caco-2 cells incubated for 2 hrs by LC-MS/MS analysis
[3] = target: AP2-associated protein kinase 1 (Mus musculus) (UniProt Q3UHJ0); assay: In vivo inhibition of AAK1 in sc dosed C57BL6 mouse assessed as suppression of mu2 phosphorylation in brain lysate by Western blot analysis; assay type: functional, organism-based
Chain of AP2-associated protein kinase 1 (Mus musculus) (Q3UHJ0 whole entry, looked up): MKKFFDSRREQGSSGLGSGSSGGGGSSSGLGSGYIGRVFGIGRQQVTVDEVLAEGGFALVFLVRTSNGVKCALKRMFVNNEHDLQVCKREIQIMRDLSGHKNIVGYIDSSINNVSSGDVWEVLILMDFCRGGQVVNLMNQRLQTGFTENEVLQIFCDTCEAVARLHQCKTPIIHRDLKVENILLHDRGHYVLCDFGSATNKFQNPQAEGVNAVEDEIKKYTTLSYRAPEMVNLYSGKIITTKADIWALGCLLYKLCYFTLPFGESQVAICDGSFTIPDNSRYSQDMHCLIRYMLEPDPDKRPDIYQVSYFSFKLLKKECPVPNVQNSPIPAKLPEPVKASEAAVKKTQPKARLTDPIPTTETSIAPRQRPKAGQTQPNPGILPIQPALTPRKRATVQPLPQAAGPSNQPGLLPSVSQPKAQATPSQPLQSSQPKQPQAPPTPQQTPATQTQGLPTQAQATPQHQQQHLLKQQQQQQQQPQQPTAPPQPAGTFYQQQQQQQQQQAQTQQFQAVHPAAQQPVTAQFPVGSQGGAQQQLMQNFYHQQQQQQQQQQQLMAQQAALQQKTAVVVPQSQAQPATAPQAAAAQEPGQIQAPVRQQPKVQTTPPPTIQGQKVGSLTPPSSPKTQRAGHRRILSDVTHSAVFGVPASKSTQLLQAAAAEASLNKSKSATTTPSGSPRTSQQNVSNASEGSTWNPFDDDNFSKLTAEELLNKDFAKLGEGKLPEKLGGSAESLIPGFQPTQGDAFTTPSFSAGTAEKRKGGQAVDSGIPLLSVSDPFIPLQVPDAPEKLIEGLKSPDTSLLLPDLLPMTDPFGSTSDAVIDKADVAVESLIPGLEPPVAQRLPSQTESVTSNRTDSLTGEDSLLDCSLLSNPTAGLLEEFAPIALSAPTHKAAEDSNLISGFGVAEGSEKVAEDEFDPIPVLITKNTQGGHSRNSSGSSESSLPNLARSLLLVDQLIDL

[4] = Metabolic stability in rat liver microsomes assessed as parent compound remaining at 0.5 uM incubated for 10 mins in presence of NADPH by LC-MS/MS analysis; assay type: ADME, Microsome; conditions: read-out: Stability
[5] = Metabolic stability in mouse liver microsomes assessed as parent compound remaining at 0.5 uM incubated for 10 mins in presence of NADPH by LC-MS/MS analysis; assay type: ADME, Microsome; conditions: read-out: Stability
[6] = Protein binding in human plasma assessed as unbound fraction at 10 uM measured after 5 hrs by equilibrium dialysis method
[7] = Drug concentration in C57BL6 mouse at 10 ml/kg, sc measured after 2 hrs by LC-MS/MS analysis; assay type: ADME, organism-based; conditions: plasma
[8] = Drug concentration in C57BL6 mouse brain at 10 ml/kg, sc measured after 2 hrs by LC-MS/MS analysis; assay type: ADME, organism-based; conditions: read-out: Ct
[9] = Ratio of drug concentration in brain to plasma in C57BL6 mouse at 30 mg/kg, sc; assay type: ADME, organism-based; conditions: read-out: BPR
[10] = Unbound brain-to-plasma concentration ratio in C57BL6 mouse at 30 mg/kg, sc; assay type: ADME, organism-based; conditions: read-out: K(p,uu,brain)
[11] = Aqueous solubility of the compound at pH 1; assay type: physicochemical
[12] = target: Citron Rho-interacting kinase (Homo sapiens, UniProt O14578); assay: Inhibition of CRIK (unknown origin) assessed as residual binding level at 1 uM by Kinomescan method relative to control
Chain of Citron Rho-interacting kinase (O14578 whole entry, the tested form may be a part): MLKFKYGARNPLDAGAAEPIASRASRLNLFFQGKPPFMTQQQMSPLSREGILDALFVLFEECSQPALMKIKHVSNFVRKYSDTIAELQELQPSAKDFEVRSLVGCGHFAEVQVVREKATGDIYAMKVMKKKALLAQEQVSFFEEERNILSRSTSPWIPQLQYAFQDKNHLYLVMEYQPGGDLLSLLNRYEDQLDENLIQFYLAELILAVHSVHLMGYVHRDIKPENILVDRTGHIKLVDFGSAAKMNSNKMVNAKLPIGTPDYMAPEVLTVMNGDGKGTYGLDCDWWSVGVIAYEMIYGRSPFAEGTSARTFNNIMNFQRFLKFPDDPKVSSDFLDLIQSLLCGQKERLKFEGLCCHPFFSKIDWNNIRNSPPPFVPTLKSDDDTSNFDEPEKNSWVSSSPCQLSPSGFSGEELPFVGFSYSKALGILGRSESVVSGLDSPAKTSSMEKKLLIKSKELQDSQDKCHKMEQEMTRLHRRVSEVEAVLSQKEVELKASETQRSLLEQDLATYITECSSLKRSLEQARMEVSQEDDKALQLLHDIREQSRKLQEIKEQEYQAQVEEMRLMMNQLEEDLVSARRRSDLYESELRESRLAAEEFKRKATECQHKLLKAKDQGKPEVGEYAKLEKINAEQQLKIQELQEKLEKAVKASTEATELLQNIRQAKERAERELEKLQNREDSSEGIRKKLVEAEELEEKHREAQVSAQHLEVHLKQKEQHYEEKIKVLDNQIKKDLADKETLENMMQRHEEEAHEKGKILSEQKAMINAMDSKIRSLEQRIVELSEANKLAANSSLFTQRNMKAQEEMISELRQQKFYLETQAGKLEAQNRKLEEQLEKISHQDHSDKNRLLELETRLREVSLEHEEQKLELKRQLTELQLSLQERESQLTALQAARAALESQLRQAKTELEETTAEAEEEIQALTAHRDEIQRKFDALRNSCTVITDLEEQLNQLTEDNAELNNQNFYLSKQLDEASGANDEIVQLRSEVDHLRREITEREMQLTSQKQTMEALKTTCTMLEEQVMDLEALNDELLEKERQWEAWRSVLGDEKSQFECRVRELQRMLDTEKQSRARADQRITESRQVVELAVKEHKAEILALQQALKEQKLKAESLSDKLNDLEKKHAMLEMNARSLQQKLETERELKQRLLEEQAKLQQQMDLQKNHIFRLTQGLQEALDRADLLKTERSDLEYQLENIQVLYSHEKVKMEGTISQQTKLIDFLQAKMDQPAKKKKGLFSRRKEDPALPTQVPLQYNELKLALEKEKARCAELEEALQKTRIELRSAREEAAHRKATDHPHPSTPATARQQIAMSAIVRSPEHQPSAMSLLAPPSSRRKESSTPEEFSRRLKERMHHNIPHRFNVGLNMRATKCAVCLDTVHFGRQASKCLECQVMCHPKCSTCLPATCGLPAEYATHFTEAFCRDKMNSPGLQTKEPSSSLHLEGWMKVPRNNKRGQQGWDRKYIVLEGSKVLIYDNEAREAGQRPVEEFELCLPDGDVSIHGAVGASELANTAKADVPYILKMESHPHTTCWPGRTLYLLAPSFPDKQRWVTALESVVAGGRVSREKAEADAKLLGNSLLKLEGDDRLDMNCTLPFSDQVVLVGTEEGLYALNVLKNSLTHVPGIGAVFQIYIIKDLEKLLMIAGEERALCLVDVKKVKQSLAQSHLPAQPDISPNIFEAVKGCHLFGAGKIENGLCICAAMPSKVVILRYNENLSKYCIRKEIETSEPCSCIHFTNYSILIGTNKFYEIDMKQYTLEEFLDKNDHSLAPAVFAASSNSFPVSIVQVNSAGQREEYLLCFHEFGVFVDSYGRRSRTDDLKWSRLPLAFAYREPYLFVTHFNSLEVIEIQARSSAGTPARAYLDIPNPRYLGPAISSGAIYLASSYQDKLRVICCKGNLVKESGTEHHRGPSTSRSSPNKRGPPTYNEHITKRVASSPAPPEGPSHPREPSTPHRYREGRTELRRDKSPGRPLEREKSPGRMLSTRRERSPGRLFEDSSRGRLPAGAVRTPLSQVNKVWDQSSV

[13] = target: Cyclin-G-associated kinase (Homo sapiens) (UniProt O14976); assay: Inhibition of wild-type human partial length GAK (G13 to Y338 residues) expressed in bacterial expression system assessed as residual binding level at 1 uM by Kinomescan method relative to control
[14] = target: Serine/threonine-protein kinase RIO2 (Homo sapiens) (UniProt Q9BVS4); assay: Inhibition of wild-type human partial length RIOK2 (M1 to D313 residues) expressed in mammalian expression system assessed as residual binding level at 1 uM by Kinomescan method relative to control
Chain of Serine/threonine-protein kinase RIO2 (Homo sapiens) (Q9BVS4 whole entry, looked up, the tested form may be a part): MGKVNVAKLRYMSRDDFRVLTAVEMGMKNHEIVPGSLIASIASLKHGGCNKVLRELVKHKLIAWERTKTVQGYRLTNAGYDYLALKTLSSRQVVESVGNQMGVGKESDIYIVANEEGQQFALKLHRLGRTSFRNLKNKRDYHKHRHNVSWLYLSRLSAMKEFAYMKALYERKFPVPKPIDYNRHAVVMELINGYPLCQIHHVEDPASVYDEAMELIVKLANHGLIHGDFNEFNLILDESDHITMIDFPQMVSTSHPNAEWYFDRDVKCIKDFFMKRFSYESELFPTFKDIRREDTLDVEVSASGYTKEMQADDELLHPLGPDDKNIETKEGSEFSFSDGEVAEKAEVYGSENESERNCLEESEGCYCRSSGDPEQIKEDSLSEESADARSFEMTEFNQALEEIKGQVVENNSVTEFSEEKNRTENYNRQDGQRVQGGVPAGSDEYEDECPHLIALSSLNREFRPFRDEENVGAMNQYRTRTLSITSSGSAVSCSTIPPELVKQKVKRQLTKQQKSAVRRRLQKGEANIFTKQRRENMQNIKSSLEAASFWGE

[15] = target: SRSF protein kinase 1 (Homo sapiens) (UniProt Q96SB4); assay: Inhibition of wild-type human full length SRPK1 (M1 to S655 residues) expressed in bacterial expression system assessed as residual binding level at 1 uM by Kinomescan method relative to control
Chain of SRSF protein kinase 1 (Homo sapiens) (Q96SB4 whole entry, the tested form may be a part): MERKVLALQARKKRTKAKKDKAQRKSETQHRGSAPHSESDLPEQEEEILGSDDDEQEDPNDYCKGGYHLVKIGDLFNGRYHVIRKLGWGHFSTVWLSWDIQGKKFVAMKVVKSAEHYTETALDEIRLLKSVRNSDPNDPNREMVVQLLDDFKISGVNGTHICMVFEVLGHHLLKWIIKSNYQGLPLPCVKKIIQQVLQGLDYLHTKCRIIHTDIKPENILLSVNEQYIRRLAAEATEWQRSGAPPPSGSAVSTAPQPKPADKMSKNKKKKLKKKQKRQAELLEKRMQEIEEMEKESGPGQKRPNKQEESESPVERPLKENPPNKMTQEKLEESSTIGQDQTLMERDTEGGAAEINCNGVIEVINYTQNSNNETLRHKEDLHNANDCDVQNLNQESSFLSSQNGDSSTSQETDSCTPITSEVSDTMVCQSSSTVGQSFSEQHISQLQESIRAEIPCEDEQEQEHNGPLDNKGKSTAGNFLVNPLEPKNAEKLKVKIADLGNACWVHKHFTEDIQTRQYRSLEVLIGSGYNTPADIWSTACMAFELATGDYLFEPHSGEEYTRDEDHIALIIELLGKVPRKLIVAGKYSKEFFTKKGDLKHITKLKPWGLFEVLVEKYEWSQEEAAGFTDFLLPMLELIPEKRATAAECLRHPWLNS

[16] = target: Cyclin-G-associated kinase (Homo sapiens, UniProt O14976); assay: Inhibition of wild-type human partial length GAK (G13 to Y338 residues) expressed in bacterial expression system by Kinomescan method
[17] = target: Serine/threonine-protein kinase haspin (Homo sapiens, UniProt Q8TF76); assay: Inhibition of wild-type human partial length HASPIN (I452 to K798 residues) expressed in mammalian expression system by Kinomescan method relative to control
[18] = Inhibition of PKA (unknown origin); parameters: species or system Homo sapiens
[19] = target: Alpha-2C adrenergic receptor (Homo sapiens, UniProt P18825); assay: Inhibition of alpha 2C adrenergic receptor (unknown origin)
Chain of Alpha-2C adrenergic receptor (P18825 whole entry): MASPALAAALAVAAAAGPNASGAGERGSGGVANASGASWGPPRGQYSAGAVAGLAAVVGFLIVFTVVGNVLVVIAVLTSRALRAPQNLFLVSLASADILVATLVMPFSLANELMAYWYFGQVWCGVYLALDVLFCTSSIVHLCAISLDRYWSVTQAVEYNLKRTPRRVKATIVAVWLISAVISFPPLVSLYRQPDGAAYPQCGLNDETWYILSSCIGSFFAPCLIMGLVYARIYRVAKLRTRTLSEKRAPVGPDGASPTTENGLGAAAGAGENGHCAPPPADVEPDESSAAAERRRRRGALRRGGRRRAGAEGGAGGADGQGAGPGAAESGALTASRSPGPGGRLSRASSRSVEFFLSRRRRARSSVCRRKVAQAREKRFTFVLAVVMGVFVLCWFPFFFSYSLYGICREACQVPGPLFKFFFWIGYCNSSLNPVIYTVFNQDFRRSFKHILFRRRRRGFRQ

Mu-type opioid receptor = Mu-type opioid receptor (Homo sapiens, UniProt P35372); assay: Inhibition of mu opioid receptor (unknown origin)
Chain of Mu-type opioid receptor (P35372 whole entry): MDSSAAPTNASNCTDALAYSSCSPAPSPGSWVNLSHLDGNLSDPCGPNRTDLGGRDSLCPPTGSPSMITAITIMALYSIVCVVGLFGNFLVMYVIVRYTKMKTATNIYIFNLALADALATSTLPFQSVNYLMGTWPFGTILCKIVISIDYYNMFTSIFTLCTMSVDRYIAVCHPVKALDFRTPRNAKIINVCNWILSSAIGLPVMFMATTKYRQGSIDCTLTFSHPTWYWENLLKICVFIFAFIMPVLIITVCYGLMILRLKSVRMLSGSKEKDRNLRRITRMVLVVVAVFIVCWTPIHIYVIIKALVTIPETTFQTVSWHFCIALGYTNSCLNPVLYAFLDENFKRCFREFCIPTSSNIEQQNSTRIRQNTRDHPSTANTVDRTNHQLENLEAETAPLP

[20] = target: Kappa-type opioid receptor (Homo sapiens, UniProt P41145); assay: Inhibition of kappa opioid receptor (unknown origin)
[21] = target: AP2-associated protein kinase 1 (Mus musculus) (UniProt Q3UHJ0); assay: In vivo inhibition of AAK1 in C57BL6 mouse assessed as suppression of mu2 phosphorylation in brain lysate at 60 mg/kg, sc measured after 1 hr by Western blot analysis relative to control; assay type: functional, organism-based
[22] = target: AP2-associated protein kinase 1 (Mus musculus) (UniProt Q3UHJ0); assay: In vivo inhibition of AAK1 in C57BL6 mouse assessed as suppression of mu2 phosphorylation in brain lysate at 60 mg/kg, sc measured after 30 mins by Western blot analysis relative to control; assay type: functional, organism-based
[23] = target: AP2-associated protein kinase 1 (Mus musculus) (UniProt Q3UHJ0); assay: In vivo inhibition of AAK1 in C57BL6 mouse assessed as suppression of mu2 phosphorylation in brain lysate at 30 mg/kg, sc measured after 2 hrs by Western blot analysis; assay type: functional, organism-based
[24] = Drug concentration in plasma of C57BL6 mouse at 0.3 mg/kg, sc; assay type: ADME, organism-based; conditions: in vivo
[25] = Drug concentration in plasma of C57BL6 mouse at 3 mg/kg, sc; assay type: ADME, organism-based; conditions: in vivo
[26] = target: AP2-associated protein kinase 1 (Mus musculus, UniProt Q3UHJ0); assay: In vivo inhibition of AAK1 in C57BL6 mouse assessed as suppression of mu2 phosphorylation in brain lysate by Western blot analysis; assay type: functional, organism-based
Chain of AP2-associated protein kinase 1 (Q3UHJ0 whole entry): as the sequence (Q3UHJ0 whole entry, looked up) above

Mus musculus [27] = assay: Antinociceptive activity against formalin-induced nociceptive behavior in C57BL6 mouse assessed as reduction in phase 2 hind paw flinching at 30 mg/kg, sc administered 60 mins prior to formalin challenge by formalin test; assay type: functional, organism-based
Mus musculus [28] = assay: Antinociceptive activity against formalin-induced nociceptive behavior in C57BL6 mouse assessed as reduction in time spent phase 1 hind paw licking/biting at 30 mg/kg, sc administered 60 mins prior to formalin challenge by formalin test; assay type: functional; conditions: 1 h
Rattus norvegicus = assay: Reversal of chronic constriction injury-induced cold allodynia in Sprague-Dawley rat model of neuropathic pain at 60 mg/kg, sc measured up to 180 mins relative to control; assay type: functional; conditions: time min <=180
[29] = Unbound brain-to-plasma concentration ratio in Sprague-Dawley rat model of chronic constriction injury-induced neuropathic pain at 60 mg/kg, sc measured after 240 mins; assay type: ADME, organism-based; conditions: read-out: K(p,uu,brain)
[30] = Unbound drug concentration in plasma of Sprague-Dawley rat model of chronic constriction injury-induced neuropathic pain at 1 mg/kg, sc; assay type: ADME, organism-based; conditions: in vivo
[31] = Unbound drug concentration in plasma of Sprague-Dawley rat model of chronic constriction injury-induced neuropathic pain at 3 mg/kg, sc; assay type: ADME, organism-based; conditions: in vivo
[32] = Unbound drug concentration in plasma of Sprague-Dawley rat model of chronic constriction injury-induced neuropathic pain at 10 mg/kg, sc; assay type: ADME, organism-based; conditions: in vivo
[33] = Unbound drug concentration in brain of Sprague-Dawley rat model of chronic constriction injury-induced neuropathic pain at 1 mg/kg, sc; assay type: ADME, organism-based; conditions: in vivo
[34] = Unbound drug concentration in brain of Sprague-Dawley rat model of chronic constriction injury-induced neuropathic pain at 3 mg/kg, sc; assay type: ADME, organism-based; conditions: in vivo
[35] = Unbound drug concentration in brain of Sprague-Dawley rat model of chronic constriction injury-induced neuropathic pain at 10 mg/kg, sc; assay type: ADME, organism-based; conditions: in vivo
[36] = Unbound drug concentration in brain of Sprague-Dawley rat model of chronic constriction injury-induced neuropathic pain at 30 mg/kg, sc; assay type: ADME, organism-based; conditions: in vivo
[37] = Drug concentration in Sprague-Dawley rat plasma at 10 mg/kg, sc measured after 190 mins; assay type: ADME, organism-based
[38] = Drug concentration in Sprague-Dawley rat plasma at 30 mg/kg, sc measured after 190 mins; assay type: ADME, organism-based

CC(C)C[C@@H](N)C(=O)Nc1ccc(-c2cnco2)c(OC(F)F)c1
permeability [1]: 113 10^-6 cm/s | Papp A→B at 2 h [2]: 12.9 ×10⁻⁶ cm/s | ED50 [3]: 6 mg/kg | remaining at 10 min, 0.5 µM [4]: 68% | remaining at 10 min, 0.5 µM [5]: 46% | fraction unbound at 5 h, 10 µM [6]: 0.038 | concentration at 2 h [7]: 17.7 µM | concentration at 2 h [8]: 18.5 µM | Kp [9]: 1.04 | Kp uu [10]: 0.71 | solubility [11]: 5850 µg/mL (≈ 17.2 mM) | Activity [12]: 0.7% | Activity [13]: 21% | Activity [14]: 3.8% | Activity [15]: 12% | IC50 [16]: 1060 nM | IC50 [17]: 922 nM | IC50 [18]: 570 nM | IC50 [19]: > 30 µM | IC50 (Mu-type opioid receptor): > 30 µM | IC50 [20]: > 30 µM | inhibition [21]: 90% | inhibition [22]: 80% | inhibition [23]: Active | concentration [24]: 400 nM | concentration [25]: 2600 nM | EC50 [26]: 8.3 µM | Activity (Mus musculus [27]): Active | Time (Mus musculus [28]): 18 s | Activity (Rattus norvegicus): 49% | Kp uu at 4 h [29]: 0.7 | Cp(f) [30]: 0.01 µM | Cp(f) [31]: 0.02 µM | Cp(f) [32]: 0.22 µM | Drug uptake(free) [33]: 0.01 µM | Drug uptake(free) [34]: 0.03 µM | Drug uptake(free) [35]: 0.2 µM | Drug uptake(free) [36]: 0.92 µM | concentration at 3.167 h [37]: 7.4 µM | concentration at 3.167 h [38]: 3.4 µM
